Test results reported in article PMC11434868, “Synthesis and Antiproliferative Effect of 3,4,5-Trimethoxylated Chalcones on Colorectal and Prostatic Cancer Cells” (Pharmaceuticals, 2024).
Where two headings read alike, the source gives them in different places.

Key:
DU145 [1] = experiment: MTT assay, antiproliferative effect on DU145; type: cell-based; settings: Homo sapiens
Description: (§1) Human CRC (HCT116 and HT-29) and PCa (DU145 and PC3) cell lines were purchased from the American Type Culture Collection (ATCC—LGC Standards, Molsheim, France). All cells were grown in RPMI 1640 medium supplemented with 10% FBS, 1% L-glutamine, 100 U/mL penicillin, and 100 μg/mL streptomycin. Cultures were maintained in a humidified atmosphere containing 5% CO2 at 37 °C. Cells were seeded in 75 cm^2 culture flasks at 1.2 × 10^4 cells/cm^2 for HCT116, DU145, and PC3 cells, and 2.0 × 10^4 for HT-29 cells. Cells were grown for 24 h in culture medium prior to exposure or not to obtain the synthesized compounds. Stock solutions (10^−2 M in DMSO) of each compound were diluted in culture medium to obtain appropriate final concentrations.
(§2) • (a) MTT assay: The antiproliferative effect of all compounds was determined using MTT assay (a metabolic activity test). Briefly, cells were seeded in 96-well culture plates at 4 × 10^3 cells/well for HCT116, PC3, and DU145 cells and 6 × 10^3 cells/well for HT-29 cells (100 µL/well), and grown for 24 h in culture medium prior to exposure or not to obtain compounds 1–15 with concentrations ranging from 5 nM to 50 μM. After 24 and 48 h of treatment, MTT (5 mg/mL in PBS) was added and incubated for another 3 h. MTT was then removed from the wells before adding 100 μL/well of DMSO. The optical density was detected with a microplate reader (Multiskan FC, Thermoscientific, Bordeaux, France) at 550 nm and cell viability was expressed as a percentage of each treatment condition compared to control cells. IC50 values were calculated for all compounds from the dose–response curve. Data are expressed as the arithmetic means ± standard error of the mean (SEM) of separate experiments. All experiments were performed at least in triplicate. • (b) Trypan blue dye exclusion method: Cells were grown for 24 h then treated with compounds 10 and 13 at indicated concentrations. After 48 h of treatment, cells were trypsinized and resuspended in complete medium. Each sample was mixed with Trypan blue solution (0.14% in HBSS, Invitrogen-GIBCO, ThermoFisher, Illkirch, France). Colored (non-viable) and dye-excluding (viable) cells were counted with the LUNA-II automated cell Counter (Logos Biosystems; MC2, Aubière, France). The control was normalized to 100% including viable and dead cells. The results indicated on the histograms were expressed as the percentage of cells compared to the control. IC50 values were determined from the percentages of viable cells compared to the control.

DU145 [2] = experiment: Trypan blue dye exclusion method on DU145; type: cell-based, human
Description: as §1, §2

HCT116 [3] = experiment: MTT assay, antiproliferative effect on HCT116; type: cell-based; settings: Homo sapiens
Description: as §1, §2

HT-29 = experiment: Trypan blue dye exclusion method on HT-29; type: cell-based, human
Description: as §1, §2

[4] = test system: caspase-3 and PARP in DU145 cells; experiment: Western blot of apoptosis-related proteins in DU145; type: cell-based, human; settings: DU145, 48 h;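 further: compared with untreated control cells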
Description: (§3) For total protein extraction, collected samples of each condition were washed in PBS. Then, the total cell pool was centrifuged at 200 g for 5 min at 4 °C and homogenized in RIPA lysis buffer (50 mM HEPES, pH 7.5, 150 mM NaCl, 1% sodium deoxycholate, 1% NP-40, 0.1% SDS, […] of aprotinin) containing protease inhibitors according to the manufacturer’s instructions. After quantification of protein levels using the Bradford method, proteins ([…]) were separated on 12.5% SDS-PAGE gels and transferred to PVDF membranes (GE Healthcare Life Science—Fisher Scientific). Membranes were probed with respective antibodies against human caspase-3, cleaved caspase-3, and PARP according to the manufacturer’s instructions. After incubation with appropriate secondary antibodies, blots were developed using the “ImmobilonWestern” substrate, following the manufacturer’s protocol, and G:BOX system (Syngene, Cambridge, UK). Membranes were then reblotted with human anti-β-actin used as a loading control.

PC3 [5] = experiment: MTT assay, antiproliferative effect on PC3; type: cell-based; settings: Homo sapiens
Description: as §1, §2

[6] = test system: caspase-3 and PARP in PC3 cells; experiment: Western blot of apoptosis-related proteins in PC3; type: cell-based, human; settings: PC3, 48 h;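 further: compared with untreated control cells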
Description: as §3

PC3 [7] = experiment: Trypan blue dye exclusion method on PC3; type: cell-based, human
Description: as §1, §2

[8] = test system: caspase-3 and PARP in HT-29 cells; experiment: Western blot of apoptosis-related proteins in HT-29; type: cell-based, human; settings: HT-29, 48 h;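 further: compared with untreated control cells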
Description: as §3

HCT116 [9] = experiment: Trypan blue dye exclusion method on HCT116; type: cell-based, human
Description: as §1, §2

[10] = test system: human CRC (HCT116 and HT-29) and human PCa (DU145 and PC3) cell lines; experiment: MTT assay, summary statements over the cell lines; type: cell-based; settings: 48 h, read-out: IC50 towards the selected cell lines
Description: as §1, §2

[11] = test system: caspase-3 and PARP in HCT116 cells; experiment: Western blot of apoptosis-related proteins in HCT116; type: cell-based, human; settings: HCT116, 48 h;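 further: compared with untreated control cells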
Description: as §3

Question: What does the source list for `COc1cc(C(=O)/C=C/c2c[nH]c3ccccc23)cc(OC)c1OC` [chalcone 10, (E)-3-(1H-indol-3-yl)-1-(3,4,5-trimethoxyphenyl)prop-2-en-1-one]?
Answer: IC50 (DU145 [1]; DU-145, 24 h, read-out: IC50 DU145 24 h): 51 ± 6 nM; IC50 (DU145 [1]; DU-145, 48 h, read-out: IC50 DU145 48 h): 20 ± 2 nM; Dead cells (DU145 [2]; DU145, 48 h, 0.010 µM): 2.21%; Dead cells (DU145 [2]; DU145, 48 h, 0.050 µM): 3.40%; Dead cells (DU145 [2]; DU145, 48 h, 0.100 µM): 5.30%; IC50 (DU145 [2]; Homo sapiens, DU-145, 48 h, from percentages of viable cells, read-out: IC50 Trypan Blue Test DU145): 40 nM; viability at 0.01 µM (DU145 [2]; Homo sapiens, DU-145, DU145, 48 h, 0.010 µM, read-out: Viable cells): 88.9%; viability at 0.05 µM (DU145 [2]; Homo sapiens, DU-145, DU145, 48 h, 0.050 µM, read-out: Viable cells): 40.6%; viability at 0.1 µM (DU145 [2]; Homo sapiens, DU-145, DU145, 48 h, 0.100 µM, read-out: Viable cells): 18.4%; IC50 (HCT116 [3]; HCT-116, 24 h, read-out: IC50 HCT116 24 h): 282 ± 12 nM; IC50 (HCT116 [3]; HCT-116, 48 h, read-out: IC50 HCT116 48 h): 39 ± 1 nM; Dead cells (HT-29; HT-29, 48 h, 0.010 µM): 3.78%; Dead cells (HT-29; HT-29, 48 h, 0.050 µM): 3.36%; Dead cells (HT-29; HT-29, 48 h, 0.100 µM): 1.68%; IC50 (HT-29; Homo sapiens, HT-29, 48 h, from percentages of viable cells, read-out: IC50 Trypan Blue Test HT-29): 21 nM; viability at 0.01 µM (HT-29; Homo sapiens, HT-29, 48 h, 0.010 µM, read-out: Viable cells): 76.2%; viability at 0.05 µM (HT-29; Homo sapiens, HT-29, 48 h, 0.050 µM, read-out: Viable cells): 15.9%; viability at 0.1 µM (HT-29; Homo sapiens, HT-29, 48 h, 0.100 µM, read-out: Viable cells): 10.7%; PARP cleavage (89 kDa fragment) [4]: induced PARP cleavage; cleaved caspase-3 [4]: clearly observed; native PARP expression [4]: strong decreased expression; pro-caspase-3 expression [4]: decrease was less marked; IC50 (PC3 [5]; PC-3, 24 h, read-out: IC50 PC3 24 h): 44 ± 6 nM; IC50 (PC3 [5]; PC-3, 48 h, read-out: IC50 PC3 48 h): 17 ± 5 nM; PARP cleavage (89 kDa fragment) [6]: induced PARP cleavage; cleaved caspase-3 [6]: clearly observed; native PARP expression [6]: strong decreased expression; pro-caspase-3 expression [6]: decreased; IC50 (PC3 [7]; Homo sapiens, PC-3, 48 h, from percentages of viable cells, read-out: IC50 Trypan Blue Test PC3): 32 nM; viability at 0.01 µM (PC3 [7]; Homo sapiens, PC-3, PC3, 48 h, 0.010 µM, read-out: Viable cells): 91.9%; viability at 0.05 µM (PC3 [7]; Homo sapiens, PC-3, PC3, 48 h, 0.050 µM, read-out: Viable cells): 31.3%; viability at 0.1 µM (PC3 [7]; Homo sapiens, PC-3, PC3, 48 h, 0.100 µM, read-out: Viable cells): 16.5%; Dead cells (PC3 [7]; PC3, 48 h, 0.010 µM): 9.33%; Dead cells (PC3 [7]; PC3, 48 h, 0.100 µM): 4.44%; PARP cleavage (89 kDa fragment) [8]: induced PARP cleavage; cleaved caspase-3 [8]: more weakly produced; native PARP expression [8]: strong decreased expression; pro-caspase-3 expression [8]: decreased; Dead cells (HCT116 [9]; HCT116, 48 h, 0.050 µM): 6.76%; Dead cells (HCT116 [9]; HCT116, 48 h, 0.100 µM): 0.85%; IC50 (HCT116 [9]; Homo sapiens, HCT-116, 48 h, from percentages of viable cells, read-out: IC50 Trypan Blue Test HCT116): 43 nM; viability at 0.01 µM (HCT116 [9]; Homo sapiens, HCT-116, HCT116, 48 h, 0.010 µM, percentage of cells compared to control, read-out: Viable cells): 97.7%; viability at 0.05 µM (HCT116 [9]; Homo sapiens, HCT-116, HCT116, 48 h, 0.050 µM, read-out: Viable cells): 43.2%; viability at 0.1 µM (HCT116 [9]; Homo sapiens, HCT-116, HCT116, 48 h, 0.100 µM, read-out: Viable cells): 17.4%; IC50 [10]: < 40 nM; IC50 ([10]; Homo sapiens): < 50 nM; PARP cleavage (89 kDa fragment) [11]: induced PARP cleavage; cleaved caspase-3 [11]: clearly observed; native PARP expression [11]: strong decreased expression; pro-caspase-3 expression [11]: decreased
